Laboratory results reported in publication PMC4979516, “Quinazoline-based tricyclic compounds that regulate programmed cell death, induce neuronal differentiation, and are curative in animal models for excitotoxicity and hereditary brain disease” (Cell Death Discovery, 2015).

Columns and labels:
[1] = biological target: T1, 18 kDa translocator protein (TSPO) (Rattus norvegicus, UniProt P16257); assay: TSPO binding, displacement of [3H]PK 11195 in rat kidney membranes
T1 construct: 400 μl of homogenized rat kidney membranes (5 mg of homogenate/ml); from tissue; host or cells: rat kidney (homogenized membranes)
T1 sequence (P16257 whole entry): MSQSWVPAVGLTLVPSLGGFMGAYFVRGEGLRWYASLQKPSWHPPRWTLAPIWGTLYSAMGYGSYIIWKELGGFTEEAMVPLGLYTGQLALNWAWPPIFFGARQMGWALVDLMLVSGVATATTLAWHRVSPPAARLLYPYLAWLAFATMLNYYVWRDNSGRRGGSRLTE
Procedure: After incubation for 60 min at 4 °C, samples were filtered under vacuum over Whatman GF/C filters and washed three times with 5 ml of 50 mM Tris-HCl buffer, pH 7.4. The filters were incubated in CytoScint (MP Biomedicals) and radioactivity was measured after 12 h with a 1600 CA Tri-Carb liquid scintillation analyzer (Packard). Inhibitory constant (Ki) values were calculated by the equation Ki=IC50/(1+C/Kd), where C=[^3H]

U118MG cells = assay: Mitochondrial membrane potential (JC-1) assay in U118MG cells exposed to glutamate; type: cell-based, human; conditions: 25 μM compound, 35 mM glutamate
Text: JC-1 was used to assay changes in Δψm, as described previously.[71],[79] Owing to charges distributed along JC-1 molecules, they pass unimpaired (charged) mitochondrial membranes and enter the mitochondrial matrix. There the J-molecules form J-aggregates, which emit at 590 nm (orange–red fluorescence). […] The monomers emit at 527 nm (green fluorescence). A decrease in the red–green fluorescence intensity ratio is an indication for mitochondrial depolarization. As a positive control, the proton ionophore carbonyl cyanide m-chlorophenylhydrazone was used as described previously.[71] Cells were collected and prepared for suspension in 10 μg/ml of JC-1 solution in PBS. After incubation at 37 °C for 30 min in the dark, the cells were washed with 0.5 ml of PBS, and the cell suspensions were analyzed with the BD FACSCalibur flow cytometer.

[2] = test system: PC12 cells strain #1 (polygonal cells); assay: Neuronal differentiation (neurite sprouting) of PC12 strain #1; type: cell-based, rat; conditions: strain #1, only polygonal cells
[3] = test system: kainic acid-injected Sprague-Dawley rats; assay: Systemic kainic acid injection model in rats (seizures, hyper reactivity, hippocampal histology); type: in vivo; conditions: rat
Text: Epileptic seizures in rats, including gnawing, wet dog shakes, head bobbing, forepaw abduction, rearing, forelimb clonus, loss of balance, and convulsions were induced by systemic injections of kainic acid and scored as previously described.[48],[83–85] Such induced seizures typically are accompanied by neurodegeneration in the hippocampus, amydala, pyriform cortex, followed by edema in the diencephalon, and mesencephalon.[43],[44],[86] To test the effects of pretreatment with MGV-1 on the consequences of kainic acid injections, first of all MGV-1 was dissolved in vehicle (10% (v/v) dimethylsulfoxide (DMSO) in sesame oil). After that, 8 weeks old rats received an intraperitoneal injection of 15, 7.5, or 3.75 mg of MGV-1 (per kg/rat), according to previous methods.[48] […] After the kainic acid injections, the rats were monitored continuously for 2 h for the development of epileptic symptoms.[48],[86]
For MGV-1 post-treatment, rats first received a KA injection (9 mg/kg/rat) and then a single injection of 15 mg/kg MGV-1 2 h later, that is, after the typical period for full blown seizure activity. In a single experiment, each experimental group and the vehicle control group consisted of nine rats. Then, for 1 week, daily injections of MGV-1 were given, and the rats were tested daily for hyper reactivity in response to handling.[47] Histological assays were applied 2 weeks after kainic acid injections.
For histological assays, rats that had developed seizures and had subsequently received treatment or control vehicle were sedated with ketamine (75 mg/kg) and xylazine (10 mg/kg) injections until no reflexes were seen and were then perfused with 4% of paraformaldehyde. […] The brains were taken and then stored in paraformaldehyde 4% solution at 4 °C. After 48 h, the solution was changed to 20% sucrose solution at 4 °C. Brains of rats that were post treated with MGV-1 were prepared in the same way. After the brains had sunk they were embedded in optimal cutting temperature compound, frozen with liquid nitrogen, and stored at −70 °C. The brains were cut at −18 °C on a Cryostat Leica (Wetzlar, Germany) CM3050S microtome in 40 μm sections from Bregma −2.8 to −5.8. The sections were kept in PBS without Ca^2+ and Mg^2+ with 0.5% sodium azide at 4 °C. Sections were incubated with primary antibodies against anti-NeuN to label neurons.[87] The appropriate secondary antibodies were applied with VECTASTAIN Peroxidase ABC Kits (Vector Laboratories, Burlingame, CA, USA) based on avidin–biotin, according to the manufacturer’s instructions. The labeled, floating sections were mounted on microscope slides and coverslipped applying glycerol vinyl alcohol aqueous mounting solution. For observations and micrographs, a BH2 Olympus (Tokyo, Japan) upright microscope outfitted with a Nikon (Tokyo, Japan) DSFi1 digital camera was used.

R6-2 mice = assay: R6-2 transgenic mouse model for Huntington disease (lifespan, behavior); type: in vivo; conditions: pilot studies, s.c. daily 5 days per week; MGV-1 15 mg/kg, PK 11195 15 mg/kg, MGV-2 15 and 7.5 mg/kg
Text: Huntington disease in humans is a hereditary disease including neurodegeneration leading to degradation in motor performance, continual involuntary movements, tremors, cardiovascular and respiratory impairments, and finally leading to death of the patients having the disease.[88] For this study, R6-2 mice (~120 CAG repeats B6CBA-Tg(HDexon1)62 Gpb/3J) mice were used as a transgenic mouse model for Huntington disease. For this purpose, mice obtained from the Jackson Laboratory were bred. In particular, males hemizygous for Tg(HDexon1)62 Gpb, and females from the wild-type background strain B6CBAF1/J, were bred according to the protocol of Jackson Laboratory.
For tests of drug efficacy, male offspring hemizygous for Tg(HDexon1)62 Gpb were used to determine drug effect on lifespan, motor activity, and general well-being of the animals. Drug treatment for this study consisted of daily (5 continuous days per week) subcutaneous injections in the neck area of mice with 20 μl of: the drug vehicle DMSO (vehicle control), 2-Cl-MGV-1(7.5 mg/kg) and 2-Cl-MGV-2 (7.5 mg/kg). […] Quantities were used according to previous studies regarding TSPO ligands[48] and adapted depending on the findings in the course of the pilot studies. The treatments were given until the animals died a natural death. Behavioral experiments included distance covered in an open field apparatus,[89] freezing,[89] and balance on a rotor-rod.[90] Spontaneous tremor activity was evaluated using a Hamilton–Kinder sensor in a soundproof ventilated apparatus (Kinder Scientific). The assays for locomotor activity, tremors, and body weight were performed on a weekly basis, together with evaluation of the well-being of the mice. Finally, the day of death was noted. As lifespan data were most pronounced, these are presented in the present description of the results. No adverse effects of any of the drug treatments were noted, neither for specific tests, nor for general observations. Importantly, DMSO had no effect by itself as compared with naive mice or saline-injected mice with various behavioral assays.[20]

Question: How did the Ki [1] turn out when CN(C)C(=O)Oc1nc(-c2ccccc2)nc2ccccc12 [MGV-1, 2-phenylquinazolin-4-yl dimethylcarbamate] was run?
Answer: 825 ± 315 nM

Question: And the “Prevention of collapse of the ΔΨm induced by glutamate (JC-1)” value (U118MG cells)?
Answer: prevention of the collapse of the ΔΨm

Question: And the “Differentiation of PC12 strain #1 by the agent by itself” value [2]?
Answer: can be differentiated by MGV-1 by itself

Question: And the “Induction of seizures by kainic acid” value ([3]; 15 and 7.5 mg/kg MGV-1 i.p. 2 h before kainic acid 9 mg/kg)?
Answer: reduction of seizure incidence by half

Question: And the “Hyper reactivity in response to handling, post-treatment” value ([3]; MGV-1 15 mg/kg 2 h after kainic acid, then daily for 6 days)?
Answer: restores normal response to handling

Question: What about the “Damage in hippocampal area CA1 (NeuN labeling), post-treatment” value ([3]; MGV-1 15 mg/kg 2 h after kainic acid, then daily for a week) of the same compound?
Answer: attenuated damage to area CA1, but less so than MGV-1 pretreatment

Question: What about the “Hyper reactivity in response to handling, pretreatment” value ([3]; MGV-1 2 h before kainic acid, week after injection) of the same compound?
Answer: attenuates the incidence of the hyper reactivity

Question: What about the “Damage in hippocampal area CA1 (NeuN labeling), pretreatment” value ([3]; MGV-1 i.p. before kainic acid 9 mg/kg, histology 2 weeks later) of the same compound?
Answer: well attenuated

Question: What about the “Effect on behavior and lifespan of R6-2 mice” value (R6-2 mice) of the same compound?
Answer: did not appear to have an effect
